System: αSyn
Assay: αSyn split NanoBit luciferase (Nluc) oligomerization assay
Type: biochemical, human
Details: 100 μM compound, 10 μM of each tagged αSyn; for activity in NanoBit complementation αSyn oligomerization assay: full time-course
Method: Ten μM αSyn-LgBiT, 10 μM αSyn-SmBiT, and Hsp70 (at 0, 10, or 30 μM), 1 mM MgCl2 and 1 mM ADP were mixed in PBS at pH 7.4 and incubated at 37° C. in a thermal cycler (BioRad DNA Engine PTC-200). At 0, 3, 6, 12 and 24 hours. The NanoBit luciferase activity was quantified using a NanoFuel® GLOW Assay for Oplophorus Luciferases (NanoLight) according to the manufacturer's instructions and read on SpectraMax L Microplate Reader (Molecular Devices) with an 8 minute delay after the addition of substrate and 1 sec integration time reading each well. The luciferase activity was normalized to the reaction without Hsp70 at 24 hour time point.
• 1. αSyn-LgBiT or LgBiT is mixed with αSyn-SmBiT at 10 μM of each (PBS pH 7.4); • 2. Incubate at 37 degree for 24 hours in PCR machine; • 3. Take 10 μL samples at 0/3/6/12/24 hours; • 4. Luminescence measurement is done using Luminometor (with injector) using h-CTZ (40 uM), 2 sec delay, 3 sec integration. Protocol: • 1. αSyn-LgBiT (10 uM) and αSyn-SmBiT (10 uM) are mixed in PBS buffer (pH 7.4); • 2. The reaction mixture is incubated in 37° C. incubator either being shaken (1000 rpm) or still; • 3. Samples are taken from the reaction at 0/3/12/24/36/48/72/96/120/144 h for ThT and Nluc assays; NLuc Assay:
• 1. Mix fusion proteins in PBS buffer (pH 7.4) to create the following three master mixes:
• 2. Dispense 10 μL protein master mix into 384-well plate (Greiner, 781904) using Mantis; • Col 1 & 23: Positive control • Col & 24: Negative control • Col 3-22: Reactions • 3. […] Seal plates using sticky foil (E&K Scientific T790080); • 5. Incubate the sealed plates at 37° C. with heat blocks above and beneath the sealed plates, use dummy plates around the reaction plate, incubate at 37° C. incubator in room N401 for 0-24 h; Day 2. I. Prepare the Plates and Substrate • 6. Cool the plates at room temp for 30 min after 24-hour incubation; • 7. Spin the plates at 500×g for 1 min; • 8. Make substrate mix (NanoLight Cat #325), keep it in darkness; II. Prepare the Plate Reader • 9. Turn on SpectraMaxL, make sure the aperture is in the right position (96/384 well):
To change: Control>Change Aperture>Lift the top panel>Press down the button and turn it to the right position>Put the panel down • 10. Put the P-injector tube into the H2O bottle, wash the injector: Control>Prime P-injector for 30× injections • 11. Remove the P-injector and leave it in the air, then empty the injector: Control>Prime P-injector for 30× injections; • 12. Put the P-injector from the substrate tube, prime the injector: Control>Prime P-injector for 20× injections III. Read the Plates • 13. Nluc assay: • Sample vol: 10 μl (dispensed on day 1) • Substrate vol: 25 μl (NanoLight Cat #325)
The SpectraMaxL will do two rounds of reads, the first round will inject substrates, the second round will read entire 384-well plate and make sure the interval between inject and read for each well is exactly the same (in this protocol, the interval is 8 min exactly)

With `CNC(=O)c1cc(O)ccc1O` [Compound 583854, 2,5-dihydroxy-N-methylbenzamide] the “activity in NanoBit complementation αSyn oligomerization assay” value (“activity” for short) was “active”.

`CNC(=O)c1cc(O)ccc1NC` [Compound 581858, 2-methylamino-5-hydroxy-N-methylbenzamide] was tested, and the “impact relative to 576755 in NanoBit complementation assay” value was “slightly less impact than compound 576755” and the “activity” value was “active”.

`CNC(=O)c1cc(O)ccc1N` [Compound 576755, 2-amino-5-hydroxy-N-methylbenzamide] was tested, and the “activity” value was “active”.

In the case of `CNC(=O)c1cc(O)ccc1N(C)C` [Compound 581823, 2-dimethylamino-5-hydroxy-N-methylbenzamide], the “activity” value is reported as “active”.
